Reference: US8466290B2, “STAT3 inhibitor containing quinolinecarboxamide derivative as active ingredient” (Pharma IP General Incorporated Association, priority 2008, dated 2013)

Assays:
STAT3 = STAT3 transcription inhibition test (reporter gene method, oncostatin M stimulation); type: cell-based; settings: compound at 100 μM, STAT3 reporter HeLa stable cell line, oncostatin M 10 ng/mL, 4 hours; for inhibition at 100 µM: Homo sapiens, read-out: STAT3 transcription inhibitory activity (%)
Description: The inhibition of STAT3 transcription was evaluated by using STAT3 reporter HeLa stable cell line (Panomics Inc., catalog No. RC0003), a cell line for the reporter gene method, and performing the following method according to the appendix included therein.
STAT3 reporter HeLa stable cell line subcultured and maintained in a Dulbecco's modified Eagle's medium (DMEM) containing 10% fetal bovine serum, 100 units/mL penicillin, and 100 μg/mL streptomycin was inoculated at a concentration of 40000 cells/well to a 96-well plate (white) and attached to the plate by overnight incubation at 37° C. under 5% CO2. After addition of each evaluation compound adjusted to various concentrations (adjusted with a DMSO solution), the cells were precultured for 1 hour. Then, oncostatin M for activating STAT3 was added at a final concentration 10 ng/mL, and the cells were further cultured at 37° C. under 5% CO2 for 4 hours. Luciferase activity derived from the cells was determined using Steady-Glo Luciferase Assay System (Promega Corp.), and STAT3 transcriptional activity scores were calculated according to the following formula: STAT3 transcriptional activity score (%)=100×(Lchem−L0)/(LDMSO−L0) Lo: luminescence intensity obtained without stimulation with oncostatin M Lchem: luminescence intensity obtained by the addition of a test sample LDMSO: luminescence intensity obtained by the addition of only a solvent for dissolving a test sample

MDA-MB-435S = MDA-MB-435S cell growth inhibitory activity; type: cell-based; settings: Homo sapiens, compound at 20 μM, 72 hours, read-out: Cell growth inhibitory activity (%)
Description: […] Each well was washed three times with a medium. Then, after addition of 100 μL/well of a medium and 20 μL/well of CellTiter 96 AQueous One Solution Reagent (Promega Corp.), the cells were incubated at 37° C. for 2 hours in the presence of 5% CO2.

| Compound | inhibition at 100 µM (STAT3) [%] | inhibition at 20 µM (MDA-MB-435S) [%] | STAT3 transcription inhibitory activity (%) (STAT3) |
| --- | --- | --- | --- |
| Cc1c(Cl)ccc2c(C(=O)Nc3nnc(-c4ccco4)o3)cc(-c3ccccc3)nc12 [Ia-26, 7-chloro-N-[5-(2-furyl)-1,3,4-oxadiazol-2-yl]-8-methyl-2-phenyl-4-quinolinecarboxamide] | 73 | – | – |
| O=C(Nc1nnc(-c2ccco2)o1)c1cc(-c2ccc(OC(F)F)cc2)nc2ccccc12 [Ia-49, 2-(4-difluoromethoxyphenyl)-N-[5-(2-furyl)-1,3,4-oxadiazol-2-yl]-4-quinolinecarboxamide] | > 100 | 51 | – |
| COc1ccc(OC)c(-c2cc(C(=O)Nc3nnc(-c4ccncc4)s3)c3ccccc3n2)c1 [Ib-c, 2-(2,5-dimethoxyphenyl)-N-[5-(4-pyridyl)-1,3,4-thiadiazol-2-yl]-4-quinolinecarboxamide] | > 100 | – | – |
| COc1ccc2cc(-c3cc(C(=O)Nc4nnc(-c5ccco5)o4)c4ccccc4n3)ccc2c1 [Ia-61, N-[5-(2-furyl)-1,3,4-oxadiazol-2-yl]-2-(6-methoxy-2-naphthyl)-quinolinecarboxamide] | – | – | >100 |
| O=C(Nc1nnc(-c2ccco2)o1)c1cc(-c2cccs2)nc2c(Cl)cccc12 [Ia-32, 8-chloro-N-[5-(2-furyl)-1,3,4-oxadiazol-2-yl]-2-(2-thienyl)-4-quinolinecarboxamide] | 90 | – | – |
| COCCOc1ccc2nc(-c3ccccc3)cc(C(=O)Nc3nnc(-c4ccco4)o3)c2c1 [Ia-89, N-[5-(2-furyl)-1,3,4-oxadiazol-2-yl]-6-(2-methoxyethoxy)-2-phenyl-4-quinolinecarboxamide] | > 100 | – | – |
| O=C(Nc1nnc(-c2cccnc2)o1)c1cc(-c2ccccc2)nc2ccccc12 [Ia-9, 2-phenyl-N-[5-(3-pyridyl)-1,3,4-oxadiazol-2-yl]-4-quinolinecarboxamide] | 65 | – | – |
| COc1ccccc1-c1nnc(NC(=O)c2cc(-c3ccccc3)nc3ccccc23)o1 [Ia-c, N-[5-(2-methoxyphenyl)-1,3,4-oxadiazol-2-yl]-2-phenyl-4-quinolinecarboxamide] | 67 | 97 | – |
| Cc1c(Cl)ccc2c(C(=O)Nc3nnc(-c4ccco4)o3)cc(-c3ccco3)nc12 [Ia-28, 7-chloro-2-(2-furyl)-N-[5-(2-furyl)-1,3,4-oxadiazol-2-yl]-8-methyl-4-quinolinecarboxamide] | > 100 | – | – |
| O=C(Nc1nnc(-c2ccccc2Cl)o1)c1cc(-c2ccccc2)nc2ccc(Cl)cc12 [Ia-112, 6-chloro-N-[5-(2-chlorophenyl)-1,3,4-oxadiazol-2-yl]-2-phenyl-4-quinolinecarboxamide] | > 100 | 69 | – |
| CCC(=O)Nc1ccc2nc(-c3ccccc3)cc(C(=O)Nc3nnc(-c4ccco4)o3)c2c1 [Ia-93, N-[5-(2-furyl)-1,3,4-oxadiazol-2-yl]-2-phenyl-6-propionylamino-4-quinolinecarboxamide] | 72 | 67 | – |
| COc1ccc(-c2cc(C(=O)Nc3nnc(-c4ccco4)o3)c3ccccc3n2)cc1OC [Ia-57, N-[5-(2-furyl)-1,3,4-oxadiazol-2-yl]-2-(3,4-dimethoxyphenyl)-4-quinolinecarboxamide] | > 100 | 64 | – |
| O=C(Nc1nnc(-c2ccco2)o1)c1cc(-c2cccs2)nc2ccc(Cl)cc12 [Ia-30, 6-chloro-N-[5-(2-furyl)-1,3,4-oxadiazol-2-yl]-2-(2-thienyl)-4-quinolinecarboxamide] | 62 | > 100 | – |
| O=C(Nc1nnc(-c2ccccc2Cl)o1)c1cc(-c2ccccc2)nc2ccc(OC(F)(F)F)cc12 [Ia-113, N-[5-(2-chlorophenyl)-1,3,4-oxadiazol-2-yl]-2-phenyl-6-trifluoromethoxy-4-quinolinecarboxamide] | > 100 | 76 | – |
| O=C(Nc1nnc(-c2ccco2)o1)c1cc(-c2ccccc2)nc2ccc(OCc3ccccc3)cc12 [Ia-90, 6-benzyloxy-N-[5-(2-furyl)-1,3,4-oxadiazol-2-yl]-2-phenyl-4-quinolinecarboxamide] | > 100 | – | – |
| O=C(Nc1nnc(-c2ccco2)o1)c1cc(-c2ccco2)nc2ccccc12 [Ia-18, 2-(2-furyl)-N-[5-(2-furyl)-1,3,4-oxadiazol-2-yl]-4-quinolinecarboxamide] | 68 | – | – |
| O=C(Nc1nnc(-c2ccco2)o1)c1cc(N2CCCCC2)nc2ccccc12 [Ia-14, N-[5-(2-furyl)-1,3,4-oxadiazol-2-yl]-2-piperidino-4-quinolinecarboxamide] | 63 | – | – |
| Cc1ccc(-c2cc(C(=O)Nc3nnc(-c4ccco4)o3)c3ccccc3n2)c(C)c1 [Ia-56, N-[5-(2-furyl)-1,3,4-oxadiazol-2-yl]-2-(2,4-dimethylphenyl)-4-quinolinecarboxamide] | 99 | – | – |

| Compound | inhibition at 100 µM (STAT3) [%] | inhibition at 20 µM (MDA-MB-435S) [%] | STAT3 transcription inhibitory activity (%) (STAT3) |
| --- | --- | --- | --- |
| O=C(Nc1nnc(-c2ccc([N+](=O)[O-])cc2)o1)c1cc(-c2ccccc2)nc2ccccc12 [Ia-7, N-[5-(4-nitrophenyl)-1,3,4-oxadiazol-2-yl]-2-phenyl-4-quinolinecarboxamide] | 65 | – | – |
| O=C(Nc1nnc(-c2ccco2)o1)c1cc(-c2ccc(O)cc2)nc2ccccc12 [Ia-50, N-[5-(2-furyl)-1,3,4-oxadiazol-2-yl]-2-(4-hydroxyphenyl)-4-quinolinecarboxamide] | 73 | – | – |
| O=C(Nc1nnc(-c2ccco2)o1)c1cc(-c2cccc([N+](=O)[O-])c2)nc2ccccc12 [Ia-16, N-[5-(2-furyl)-1,3,4-oxadiazol-2-yl]-2-(3-nitrophenyl)-4-quinolinecarboxamide] | 62 | – | – |
| O=C(Nc1nnc(-c2ccccc2)o1)c1cc(-c2cccs2)nc2ccccc12 [Ia-j, N-(5-phenyl-1,3,4-oxadiazol-2-yl)-2-(2-thienyl)-4-quinolinecarboxamide] | 91 | – | – |
| O=C(Nc1nnc(-c2ccc(Cl)cc2)o1)c1cc(-c2ccccc2)nc2ccccc12 [Ia-5, N-[5-(4-chlorophenyl)-1,3,4-oxadiazol-2-yl]-2-phenyl-4-quinolinecarboxamide] | > 100 | – | – |
| O=C(Nc1nnc(-c2ccncc2)s1)c1cc(-c2cccnc2)nc2ccc(Cl)cc12 [Ib-d, 6-chloro-2-(3-pyridyl)-N-[5-(4-pyridyl)-1,3,4-thiadiazol-2-yl]-4-quinolinecarboxamide] | 73 | – | – |
| O=C(Nc1nnc(-c2ccc([N+](=O)[O-])o2)o1)c1cc(-c2ccccc2)nc2ccccc12 [Ia-84, N-[5-(5-nitro-2-furyl)-1,3,4-oxadiazol-2-yl]-2-phenyl-4-quinolinecarboxamide] | 56 | – | – |
| CN(C)CCOc1ccc2nc(-c3ccccc3)cc(C(=O)Nc3nnc(-c4ccco4)o3)c2c1 [Ia-88, N-[5-(2-furyl)-1,3,4-oxadiazol-2-yl]-6-[2-(dimethylamino)ethoxy]-2-phenyl-4-quinolinecarboxamide] | 76 | – | – |
| Cc1cc(-c2cc(C(=O)Nc3nnc(-c4ccncc4)s3)c3cc(Cl)ccc3n2)c(C)s1 [Ib-f, 6-chloro-2-(2,5-dimethyl-3-thienyl)-N-[5-(4-pyridyl)-1,3,4-thiadiazol-2-yl]-4-quinolinecarboxamide] | 100 | – | – |
| Cc1ccc(-c2cc(C(=O)Nc3nnc(-c4ccncc4)s3)c3ccccc3n2)o1 [Ib-e, 2-(5-methyl-2-furyl)-N-[5-(4-pyridyl)-1,3,4-thiadiazol-2-yl]-4-quinolinecarboxamide] | 85 | – | – |
| O=C(Nc1nnc(-c2ccoc2)o1)c1cc(-c2ccccc2)nc2ccccc12 [Ia-2, N-[5-(3-furyl)-1,3,4-oxadiazol-2-yl]-2-phenyl-4-quinolinecarboxamide] | > 100 | – | – |
| O=C(Nc1nnc(-c2ccco2)o1)c1cc(-c2ccccc2Cl)nc2ccccc12 [Ia-37, 2-(2-chlorophenyl)-N-[5-(2-furyl)-1,3,4-oxadiazol-2-yl]-4-quinolinecarboxamide] | 100 | – | – |
| N-[(5-phenyl-1,3,4-oxadiazol-2-yl)methyl]-4-quinolinecarboxamide [Ia-10] | – | – | >100 |
| O=C(Nc1nnc(-c2ccco2)o1)c1cc(-c2ccco2)nc2c(Cl)cccc12 [Ia-79, 8-chloro-2-(2-furyl)-N-[5-(2-furyl)-1,3,4-oxadiazol-2-yl]-4-quinolinecarboxamide] | > 100 | – | – |
| Nc1ccccc1-c1cc(C(=O)Nc2nnc(-c3ccco3)o2)c2ccccc2n1 [Ia-40, 2-(2-aminophenyl)-N-[5-(2-furyl)-1,3,4-oxadiazol-2-yl]-4-quinolinecarboxamide] | 62 | – | – |
| CCCC(=O)Nc1ccc2nc(-c3ccccc3)cc(C(=O)Nc3nnc(-c4ccco4)o3)c2c1 [Ia-94, 6-butyrylamino-N-[5-(2-furyl)-1,3,4-oxadiazol-2-yl]-2-phenyl-4-quinolinecarboxamide] | 89 | – | – |
| O=C(Nc1nnc(-c2ccco2)s1)c1cc(-c2ccccc2)nc2ccccc12 [Ib-4, N-[5-(2-furyl)-1,3,4-thiadiazol-2-yl]-2-phenyl-4-quinolinecarboxamide] | 58 | – | – |
